This note sets out measurements from patent US8143282B2, “Heterocyclic compounds” (S*BIO Pte Ltd., priority 2005, dated 2012).

The target in one series is T1, HDAC1 enzyme (Homo sapiens, UniProt Q13547).
T1 construct: Amplification of human HDAC1 coding region from this cDNA library was cloned separately into the baculovirus expression pDEST20 vector; made in house; host or cells: SF9 insect cells, pDEST20-HDAC1 baculovirus
Nature of the series: In vitro HDAC assay for determination of IC50 values (BIOMOL fluorescent-based HDAC activity assay). In kind it is biochemical. The essentials:
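Recombinant GST-HDAC1, cloned from SW620 cDNA and expressed in Sf9 cells, tested in a fluorogenic Fluor de Lys deacetylase assay. Developer was added for 10 min and fluorescence read at 360/460 nm. IC50 came from concentration series.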

In the next series the test system is Colo205 cells. Nature of the series: Cell-based proliferation assay for GI50 (CyQUANT), Colo205. The note with it: Homo sapiens, COLO 205, 96 h treatment, read-out: Cellular or Growth Inhibition Activity in Colo205 cells, GI50. The essentials:
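Cells were seeded at 1000 (PC3), 5000 (Colo205), 6000 (HCT116) or 4000 (HEP3B) per well and left 24 h at 37° C. Compound treatment lasted 96 h. Growth was read by CyQUANT, and GI50 (50% growth inhibition) came from dose-response curves.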

A short description of series [1]: Measurement of microsomal stability. In kind it is in vitro ADME. The note with it: pooled human liver microsomes, pH 7.4; human liver microsome, 5 μM test compound, 1.0 mg/ml microsomal protein. The protocol:
Metabolic stability measurements in the in vitro using liver microsomes aids in the prediction of the in vivo hepatic clearance and the compound stability towards phase I biotransformation reactions mediated by P450 isozymes.
Pooled human liver microsome (HLM was purchased from BD Gentest (BD BioSciences). The incubations consisted of test compound (5 μM) or control compound (Verapamil), NADPH-generating system solution A (25 mM NADP^+, 66 mM glucose-6-phosphate, 66 mM MgCl2 in H2O), NADPH-generating system solution B (40 U/ml glucose-6-phosphate dehydrogenase in 5 mM sodium citrate) and 1.0 mg/ml microsomal protein, respectively, in 100 mM potassium phosphate buffer (pH 7.4). Samples were incubated for 0, 5, 15, 30, 45, 60 min. Reaction was terminated with ice-cold 80% acetonitrile and 20% DMSO. Samples were subsequently centrifuged at 4° C. for 15 min at 2,000 rpm. 100 μL of the supernatant was transferred to the LC-MS Plate for analysis. Before quantitative analysis, the compound was tuned in LC/MS machine to get the optimized MS condition. Liquid chromatography was performed on a Luna C18 column (Phenomenex U.S.A, Torrance, Calif.) (2×50 mm, 5 μM). % of the compound remaining (by area) at each time point is calculated with respect to time 0 min. Plot % remaining against time (min) to obtain the curve and use the Prism software to obtain the t1/2.
Background: Microsomes from liver hold many membrane-bound enzymes, among them those of drug oxidation.

T1 sequence (Q13547 whole entry): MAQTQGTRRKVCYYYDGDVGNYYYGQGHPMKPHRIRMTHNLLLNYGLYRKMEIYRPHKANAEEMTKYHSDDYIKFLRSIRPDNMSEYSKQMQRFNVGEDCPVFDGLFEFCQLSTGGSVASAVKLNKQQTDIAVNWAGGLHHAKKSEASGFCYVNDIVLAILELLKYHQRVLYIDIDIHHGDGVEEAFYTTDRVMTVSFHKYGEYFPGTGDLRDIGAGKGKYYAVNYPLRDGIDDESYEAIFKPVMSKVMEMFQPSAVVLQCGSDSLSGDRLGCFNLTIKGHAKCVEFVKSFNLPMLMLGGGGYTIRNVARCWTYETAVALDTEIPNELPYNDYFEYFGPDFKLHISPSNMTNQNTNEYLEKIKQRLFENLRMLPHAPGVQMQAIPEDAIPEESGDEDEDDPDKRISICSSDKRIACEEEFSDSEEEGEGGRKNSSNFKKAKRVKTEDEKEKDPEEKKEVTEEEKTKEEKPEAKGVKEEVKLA

Turning to `CC(C)c1nc2cc(/C=C/C(=O)NO)ccc2n1CC(C)(C)CN(C)C` [Compound 2, 3-[1-(3-Dimethylamino-2,2-dimethyl-propyl)-2-isopropyl-1H-benzoimidazol-5-yl]-N-hydroxy-acrylamide], at HDAC1 enzyme, the IC50 – broadly, the concentration at which inhibition is half-maximal – amounted to 380 nM. Further, the 50% growth inhibitory concentration (GI50) (commonly the concentration giving 50% growth inhibition) in the series on Colo205 cells was 2120 nM. The half-life (usually the time in which the quantity being followed falls by half) at 5 μM in series [1] is greater than 30 min.

In turn, `C=CCCc1nc2cc(/C=C/C(=O)NO)ccc2n1CCN(CC)CC` [Compound 11, 3-[2-But-3-enyl-1-(2-diethylamino-ethyl)-1H-benzoimidazol-5-yl]-N-hydroxy-acrylamide] yielded a 50% inhibitory concentration (IC50) against HDAC1 enzyme of 70 nM. Further, the GI50 in the series on Colo205 cells was 480 nM. The compound further had a half-life at 5 μM in series [1] greater than 30 min.

`C#CCCc1nc2cc(/C=C/C(=O)NO)ccc2n1CCN(CC)CC` [Compound 12, 3-[2-But-3-ynyl-1-(2-diethylamino-ethyl)-1H-benzoimidazol-5-yl]-N-hydroxy-acrylamide] displayed a concentration for half-maximal inhibition (IC50) against HDAC1 enzyme of 64 nM. In the series with Colo205 cells, the 50% growth inhibitory concentration (GI50) came to 510 nM. This compound gave a half-life at 5 μM in series [1] greater than 30 min.

In turn, `CCCN(CC)CCn1cnc2cc(/C=C/C(=O)NO)ccc21` [Compound 112, 3-{1-[2-(Ethyl-propyl-amino)-ethyl]-1H-benzoimidazol-5-yl}-N-hydroxy-acrylamide] came in with an IC50 against HDAC1 enzyme of 120 nM. Further, the GI50 with Colo205 cells is 880 nM.

In turn, `CCCC(C)CN(CCn1cnc2cc(/C=C/C(=O)NO)ccc21)C(C)C` (stereo not drawn) [Compound 113, N-Hydroxy-3-(1-{2-[isopropyl-(2-methyl-pentyl)-amino]-ethyl}-1H-benzoimidazol-5-yl)-acrylamide] came in with a concentration for half-maximal inhibition (IC50) at HDAC1 enzyme of 16 nM. The concentration for 50% growth inhibition (GI50) with Colo205 cells was found to be 610 nM.

For `CC(C)N(CCCC(F)(F)F)CCn1cnc2cc(/C=C/C(=O)NO)ccc21` [Compound 114, (E)-N-hydroxy-3-(1-(2-(isopropyl(4,4,4-trifluorobutyl)amino)ethyl)-1H-benzo[d]imidazol-5-yl)acrylamide], inhibition on HDAC1 enzyme was half-maximal at 63 nM (IC50). Besides, the concentration for 50% growth inhibition (GI50) with Colo205 cells stood at 720 nM.

As to `CCCCCCN(CC)CCn1c(C)nc2cc(/C=C/C(=O)NO)ccc21` [Compound 116, 3-{1-[2-(Ethyl-hexyl-amino)-ethyl]-2-methyl-1H-benzoimidazol-5-yl}-N-hydroxy-acrylamide], on HDAC1 enzyme, the IC50 was found to be 100 nM. Also, in the series on Colo205 cells, the GI50 worked out at 700 nM.

For the compound `CCCCN(CC)CCn1c(C(F)(F)F)nc2cc(/C=C/C(=O)NO)ccc21` [Compound 117, 3-{1-[2-(Butyl-ethyl-amino)-ethyl]-2-trifluoromethyl-1H-benzoimidazol-5-yl}-N-hydroxy-acrylamide], the half-maximal inhibitory concentration (IC50) on HDAC1 enzyme was determined as 190 nM. The GI50 in the series with Colo205 cells turned out to be 1800 nM.

For `CCCCCCN(CC)CCn1c(C(F)(F)F)nc2cc(/C=C/C(=O)NO)ccc21` [Compound 118, 3-{1-[2-(Ethyl-hexyl-amino)-ethyl]-2-trifluoromethyl-1H-benzoimidazol-5-yl}-N-hydroxy-acrylamide], half-maximal inhibition on HDAC1 enzyme (IC50) required 480 nM. The GI50 with Colo205 cells was determined as 1880 nM.

`CCCCN(CCCC)CCn1c(CCC)nc2cc(/C=C/C(=O)NO)ccc21` [Compound 119, (E)-3-(1-(2-(dibutylamino)ethyl)-2-propyl-1H-benzo[d]imidazol-5-yl)-N-hydroxyacrylamide]: the half-inhibitory concentration (IC50) at HDAC1 enzyme came out at 180 nM. Besides, the GI50 in the series on Colo205 cells was 770 nM.

On HDAC1 enzyme, `CCCN(CCC)CCn1cnc2cc(/C=C/C(=O)NO)ccc21` [Compound 120, 3-[1-(2-Dipropylamino-ethyl)-1H-benzoimidazol-5-yl]-N-hydroxy-acrylamide] showed a half-maximal inhibitory concentration (IC50) of 110 nM. For the same compound, the 50% growth inhibitory concentration (GI50) in the series with Colo205 cells amounted to 490 nM.

As for `CC(C)CCN(CCn1cnc2cc(/C=C/C(=O)NO)ccc21)C(C)C` [Compound 121, N-Hydroxy-3-(1-{2-[isopropyl-(3-methyl-butyl)-amino]-ethyl}-1H-benzoimidazol-5-yl)-acrylamide], half-maximal inhibition on HDAC1 enzyme (IC50) required 79 nM. For the same compound, the concentration for 50% growth inhibition (GI50) in the series with Colo205 cells came out at 490 nM.

The compound `CN(CCn1cnc2cc(/C=C/C(=O)NO)ccc21)CCC(C)(C)C` [Compound 122, 3-(1-{2-[(3,3-Dimethyl-butyl)-methyl-amino]-ethyl}-1H-benzoimidazol-5-yl)-N-hydroxy-acrylamide] showed an IC50 at HDAC1 enzyme of 37 nM. Also, the 50% growth inhibitory concentration (GI50) in the series on Colo205 cells amounted to 150 nM.

In the case of `CCC(CC)CN(C)CCn1cnc2cc(/C=C/C(=O)NO)ccc21` [Compound 123, 3-(1-{2-[(2-Ethyl-butyl)-methyl-amino]-ethyl}-1H-benzoimidazol-5-yl)-N-hydroxy-acrylamide], on HDAC1 enzyme, the concentration for half-maximal inhibition (IC50) came out at 27 nM. For the same compound, the 50% growth inhibitory concentration (GI50) in the series on Colo205 cells stood at 150 nM.

`CC(C)(C)CCN(CCn1cnc2cc(/C=C/C(=O)NO)ccc21)CCC(C)(C)C` [Compound 124, (E)-3-(1-(2-(bis(3,3-dimethylbutyl)amino)ethyl)-1H-benzo[d]imidazol-5-yl)-N-hydroxyacrylamide] came in with an IC50 against HDAC1 enzyme of 85 nM. For the same compound, the concentration for 50% growth inhibition (GI50) in the series on Colo205 cells is 540 nM.

Turning to `CC(C)CN(CCn1cnc2cc(/C=C/C(=O)NO)ccc21)CC(C)C` [Compound 125, (E)-3-(1-(2-(diisobutylamino)ethyl)-1H-benzo[d]imidazol-5-yl)-N-hydroxyacrylamide], the IC50 on HDAC1 enzyme was 160 nM. Also, in the series with Colo205 cells, the GI50 worked out at 680 nM.

Consider `CC(C)(C)CCNCCn1cnc2cc(/C=C/C(=O)NO)ccc21` [Compound 126, 3-{1-[2-(3,3-Dimethyl-butylamino)-ethyl]-1H-benzoimidazol-5-yl}-N-hydroxy-acrylamide], for which, at HDAC1 enzyme, the IC50 was 42 nM. Also, the concentration for 50% growth inhibition (GI50) in the series on Colo205 cells came to 420 nM.

As to `C=CCCCN(C)CCn1cnc2cc(/C=C/C(=O)NO)ccc21` [Compound 127, N-Hydroxy-3-{1-[2-(methyl-pent-4-enyl-amino)-ethyl]-1H-benzoimidazol-5-yl}-acrylamide], the IC50 at HDAC1 enzyme was 78 nM. Further, the 50% growth inhibitory concentration (GI50) in the series with Colo205 cells amounted to 340 nM.

On HDAC1 enzyme, `CCCN(CCn1cnc2cc(/C=C/C(=O)NO)ccc21)CCC(C)(C)C` [Compound 128, 3-(1-{2-[(3,3-Dimethyl-butyl)-propyl-amino]-ethyl}-1H-benzoimidazol-5-yl)-N-hydroxy-acrylamide] gave a half-maximal inhibitory concentration (IC50) of 31 nM. In the series with Colo205 cells, the GI50 was 140 nM.

As for `CSc1nc2cc(/C=C/C(=O)NO)ccc2n1CC(C)(C)CN(C)C` [Compound 129, 3-[1-(3-Dimethylamino-2,2-dimethyl-propyl)-2-methylsulfanyl-1H-benzoimidazol-5-yl]-N-hydroxy-acrylamide], on HDAC1 enzyme, the IC50 worked out at 770 nM. Moreover, in the series with Colo205 cells, the GI50 is 3900 nM.

At HDAC1 enzyme, `CC(C)(C)CCNCCn1c(CC(C)(C)C)nc2cc(/C=C/C(=O)NO)ccc21` [Compound 131, 3-[1-[2-(3,3-Dimethyl-butylamino)-ethyl]-2-(2,2-dimethyl-propyl)-1H-benzoimidazol-5-yl]-N-hydroxy-acrylamide] had an IC50 of 66 nM. Moreover, in the series on Colo205 cells, the GI50 came to 330 nM.

`CC(C)(C)CNCCn1cnc2cc(/C=C/C(=O)NO)ccc21` [Compound 133, 3-{1-[2-(2,2-Dimethyl-propylamino)-ethyl]-1H-benzoimidazol-5-yl}-N-hydroxy-acrylamide] yielded a 50% inhibitory concentration (IC50) against HDAC1 enzyme of 72 nM. Besides, in the series with Colo205 cells, the GI50 is 560 nM.

As for `CCCN(CCn1cnc2cc(/C=C/C(=O)NO)ccc21)CC(C)(C)C` [Compound 134, 3-(1-{2-[(2,2-Dimethyl-propyl)-propyl-amino]-ethyl}-1H-benzoimidazol-5-yl)-N-hydroxy-acrylamide], the concentration for half-maximal inhibition (IC50) on HDAC1 enzyme was 220 nM. In the series on Colo205 cells, the concentration for 50% growth inhibition (GI50) was 2300 nM.

In turn, `CCc1nc2cc(/C=C/C(=O)NO)ccc2n1CCNCCC(C)(C)C` [Compound 135, 3-{1-[2-(3,3-Dimethyl-butylamino)-ethyl]-2-ethyl-1H-benzoimidazol-5-yl}-N-hydroxy-acrylamide] showed an IC50 on HDAC1 enzyme of 74 nM. For the same compound, the GI50 in the series with Colo205 cells came out at 260 nM.

On to `CCCc1nc2cc(/C=C/C(=O)NO)ccc2n1CCN(C)CCC(C)(C)C` [Compound 136, 3-(1-{2-[(3,3-Dimethyl-butyl)-methyl-amino]-ethyl}-2-propyl-1H-benzoimidazol-5-yl)-N-hydroxy-acrylamide], for which, at HDAC1 enzyme, inhibition was half-maximal at 53 nM (IC50). Besides, the GI50 with Colo205 cells came out at 390 nM.

The compound `CC(C)(C)CCN(CCn1cnc2cc(/C=C/C(=O)NO)ccc21)CC(F)(F)F` [Compound 137, 3-(1-{2-[(3,3-Dimethyl-butyl)-(2,2,2-trifluoro-ethyl)-amino]-ethyl}-1H-benzoimidazol-5-yl)-N-hydroxy-acrylamide] displayed a concentration for half-maximal inhibition (IC50) on HDAC1 enzyme of 93 nM. The GI50 with Colo205 cells turned out to be 1970 nM.

With `CCCCN(CCn1cnc2cc(/C=C/C(=O)NO)ccc21)CC(F)(F)F` [Compound 138, 3-(1-{2-[Butyl-(2,2,2-trifluoro-ethyl)-amino]-ethyl}-1H-benzoimidazol-5-yl)-N-hydroxy-acrylamide], half-maximal inhibition at HDAC1 enzyme (IC50) required 100 nM. The 50% growth inhibitory concentration (GI50) in the series with Colo205 cells was determined as 1960 nM.
